Read-outs that look alike come from different tables or passages of the source.
Key:
zfPXR [1] = molecular target: T1, zfPXR (Danio rerio, UniProt A5WYG8); assay: HG5LN Gal4-zfPXR luciferase reporter gene assay, antagonism (coexposure with clotrimazole); type: cell-based, zebrafish
Description: (§1) The cell lines used in this study are listed in Supplementary Table 3 . The HG5LN, HG5LN Gal4-hPXR and HG5LN Gal4-zfPXR cell lines were previously described ([19]). Briefly, HeLa cells stably transfected with the GAL4RE5-βGlobin-Luc-SVNeo plasmid (HG5LN cell line) ([15]). HG5LN cells were stably transfected with the pSG5-GAL4(DBD)-hPXR(LBD)-puro or pSG5-GAL4(DBD)-zfPXR(LBD)-puro plasmids.
(§2) HG5LN cells were cultured in Dulbecco’s Modified Eagle Medium: Nutrient Mixture F-12 (D-MEM/F-12) containing phenol red and 1 g/L glucose and supplemented with 5% fetal bovine serum, 100 units/mL of penicillin and 100 µg/mL of streptomycin supplemented with 1 mg/mL geneticin in a 5% CO2 humidified atmosphere at 37°C. HG5LN GAL4-hPXR and GAL4-zfPXR were cultured in the same culture medium supplemented with 0.5 µg/mL puromycin.
(§3) The ability of chemicals to modulate the hPXR and zfPXR was investigated in HG5LN, HG5LN-hPXR, HG5LN-zfPXR, and ZFL-zfPXR cell lines after exposure to serial dilutions of the compounds and measurement of luciferase activity. […] Briefly, cells were seeded in 96-well white opaque flat bottom microplates at 0.5 10^5 cells per well in culture medium. […] Cells were then exposed to a concentration range of the compounds by using an automated workstation (Biomek 3000, Beckman Coulter). The final concentration of DMSO in the well never exceeds 0.1% (v/v). After 16h of exposure, medium was removed and 50 µL of test medium containing 0.3 mM D-luciferin were added per well. After 5 min, the production of light was assessed in living cells using microplate reader (MicroBeta, PerkinElmer SAS, Courtabœuf, France).
(§4) In the transactivation assay, each compound was tested at various concentrations in three independent experiments at least. For each experiment, tests were performed in quadruplicates for each concentration, and data are expressed by means values with standard deviations. […] This allowed to determine EC50 and IC50 values of tested chemicals.

zfPXR [2] = molecular target: T1, zfPXR; assay: cell-based
Description: as §3, §4

hPXR = molecular target: T2, hPXR (Homo sapiens, UniProt O75469); assay: HG5LN Gal4-hPXR luciferase reporter gene assay, agonism
T2 sequence (O75469 146-433 limits assumed): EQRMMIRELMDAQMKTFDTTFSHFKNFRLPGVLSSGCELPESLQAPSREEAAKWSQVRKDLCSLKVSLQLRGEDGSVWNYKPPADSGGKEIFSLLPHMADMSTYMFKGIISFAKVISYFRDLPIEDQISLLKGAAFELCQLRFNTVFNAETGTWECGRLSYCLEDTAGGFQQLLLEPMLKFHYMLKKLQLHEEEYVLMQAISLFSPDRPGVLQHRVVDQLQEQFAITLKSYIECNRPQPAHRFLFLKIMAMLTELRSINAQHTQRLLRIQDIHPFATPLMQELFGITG
Description: as §1, §2, §3, §4

zfPXR [3] = molecular target: T1, zfPXR; assay: cell-based; parameters: Emax: dose or concentration left out as unconfirmed
Description: as §3, §4

zfPXR [4] = molecular target: T1, zfPXR; assay: HG5LN Gal4-zfPXR luciferase reporter gene assay, agonism; type: cell-based, zebrafish
Description: as §1, §2, §3, §4

T1 sequence (A5WYG8 entry or part of it): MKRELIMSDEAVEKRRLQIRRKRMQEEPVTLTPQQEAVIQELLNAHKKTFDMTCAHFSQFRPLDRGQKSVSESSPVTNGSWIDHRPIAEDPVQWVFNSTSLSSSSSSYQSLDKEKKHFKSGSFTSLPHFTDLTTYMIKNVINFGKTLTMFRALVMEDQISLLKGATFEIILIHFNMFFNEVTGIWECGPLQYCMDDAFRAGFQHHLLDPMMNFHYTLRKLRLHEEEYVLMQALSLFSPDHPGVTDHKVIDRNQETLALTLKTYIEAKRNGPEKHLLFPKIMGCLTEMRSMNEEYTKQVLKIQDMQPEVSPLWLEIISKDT

SMILES	IC50 (zfPXR [1])	remaining activity at 10 µM (zfPXR [1]; HG5LN, read-out: zfPXR antagonism Min)	IC50 (zfPXR [2])	zfPXR antagonism Min (zfPXR [2]; ZFL-zfPXR, minimal activity at 10 µM, coexposure with 0.03 µM clotrimazole, % of maximal induced by 1 µM clotrimazole)	EC50 (hPXR)	hPXR agonism Max (hPXR; HG5LN-hPXR, maximal activity at 10 µM, % of maximal induced by 3 µM SR 12813, DMSO 19 ± 6)	EC50 (zfPXR [3])	EC50 (zfPXR [4]; HG5LN-zfPXR cells, 16h exposure, n.a. = not active, read-out: zfPXR agonism EC50)	hPXR agonism Max (hPXR)	Emax (zfPXR [3]; read-out: zfPXR agonism Max)	EC50 (zfPXR [4])
CC1(C)[C@H](C(=O)O[C@H](C#N)c2cccc(Oc3ccccc3)c2)[C@@H]1C=C(Br)Br [Deltamethrin]	1.6 ± 0.2 µM	21%	1.6 ± 0.06 µM	3%	1.8 ± 0.2 µM	92%	–	–	–	–	–
C#C[C@]1(O)CC[C@H]2[C@@H]3CCC4=CCCC[C@@H]4[C@H]3C(=C)C[C@@]21CC [Desogestrel, reference compound]	–	–	–	–	–	–	0.07 ± 0.004 µM	0.13 ± 0.01 µM	54%	–	–
CCC(CC)Nc1c([N+](=O)[O-])cc(C)c(C)c1[N+](=O)[O-] [Pendimethalin]	–	–	–	–	3 ± 0.1 µM	–	0.12 ± 0.01 µM	–	91%	92%	0.47 ± 0.1 µM

Source: paper PMC8167039, “A Comparative Study of Human and Zebrafish Pregnane X Receptor Activities of Pesticides and Steroids Using In Vitro Reporter Gene Assays” (Frontiers in Endocrinology, 2021)
